From PubChem BioAssay (NCI)
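At the GI50, growth is halved. TGI: concentration producing complete growth inhibition.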

Tests used:
Assay in all cases: DTP human tumour cell line panel, 384-well format
[1] = system: MCF7 breast
[2] = system: HCC-2998 colon
[3] = system: RXF 393 renal
[4] = system: NCI-H460 NSCLC
[5] = system: UACC-257 melanoma
[6] = system: A498 renal
[7] = system: HCT-15 colon
[8] = system: PC-3 prostate
[9] = system: HOP-92 NSCLC
[10] = system: HT29 colon
[11] = system: U251 glioblastoma
[12] = system: SF-295 CNS
[13] = system: T-47D breast
[14] = system: OVCAR-3 ovarian
[15] = system: SK-OV-3 ovarian
[16] = system: NCI-H322M lung
[17] = system: OVCAR-5 ovarian
[18] = system: NCI-H23 lung
[19] = system: MALME-3M melanoma
[20] = system: ACHN renal
[21] = system: MDA-MB-435 melanoma
[22] = system: SW-620 colon
[23] = system: MDA-MB-468 breast
[24] = system: SN12C renal
[25] = system: NCI-H522 lung
[26] = system: OVCAR-4 ovarian
[27] = system: HS 578T breast
[28] = system: RPMI-8226 leukemia

C[C@]1(c2nc3c(C(N)=O)cccc3[nH]2)CCCN1
TGI [1]: > 100 µM | GI50 [2]: 26.6 µM | TGI [2]: > 100 µM | GI50 [3]: > 100 µM | TGI [3]: > 100 µM | GI50 [4]: 28.7 µM | TGI [4]: > 100 µM | GI50 [5]: > 100 µM | TGI [5]: > 100 µM | GI50 [6]: > 100 µM | TGI [6]: > 100 µM | GI50 [7]: > 100 µM | TGI [7]: > 100 µM | GI50 [8]: > 100 µM | TGI [8]: > 100 µM | GI50 [9]: > 100 µM | TGI [9]: > 100 µM | GI50 [10]: > 100 µM | TGI [10]: > 100 µM | GI50 [11]: > 100 µM | TGI [11]: > 100 µM | GI50 [12]: 38.9 µM | TGI [12]: > 100 µM | GI50 [13]: > 100 µM | TGI [13]: > 100 µM | GI50 [14]: > 100 µM | TGI [14]: > 100 µM | GI50 [15]: > 100 µM | TGI [15]: > 100 µM | GI50 [16]: > 100 µM | TGI [16]: > 100 µM | GI50 [17]: 84.4 µM | TGI [17]: > 100 µM | GI50 [18]: 78.7 µM | TGI [18]: > 100 µM | GI50 [19]: > 100 µM | TGI [19]: > 100 µM | GI50 [20]: > 100 µM | TGI [20]: > 100 µM | GI50 [21]: > 100 µM | TGI [21]: > 100 µM | GI50 [22]: > 100 µM | TGI [22]: > 100 µM | GI50 [23]: 16.2 µM | TGI [23]: > 100 µM | GI50 [24]: 85.2 µM | TGI [24]: > 100 µM | GI50 [25]: > 100 µM | TGI [25]: > 100 µM | GI50 [26]: > 100 µM | TGI [26]: > 100 µM | GI50 [27]: > 100 µM | TGI [27]: > 100 µM | GI50 [28]: > 100 µM | TGI [28]: > 100 µM
